# Entries after “also recorded” stand apart in the source; their conditions may differ.
# What was measured:
# Assay type in all cases: in vivo
# BLA-DMS neural circuit [1] = assay: Hole board test in mice with chemogenetically (hM3Dq/CNO) activated BLA-DMS circuit
# Protocol: A solution of clozapine N-oxide (CNO; Tocris, Bristol, United Kingdom) in saline was intraperitoneally injected to mice. Taking into account the time it takes for the drug to act, the experiment was started after about 30 minutes. The drug was injected at a dose of 1 mg/kg at the same time every day.
# As a control for CNO, saline was used. Saline was also intraperitoneally injected at the same volume and the experiments were conducted in the same condition as for the CNO group.
# A square acrylic plate with 9 holes (3 cm in diameter) was made to be 30 cm wide and 30 cm long. A home base was constructed with a material different from the acryl plate. Based on the home base, water was placed on the right end of the acrylic plate, and 10% sucrose was placed on the other side. Afterward, a mouse was placed in the home base and monitored for 1 hour under a video camera. Remaining amounts of sucrose and water were recorded after completion of the test.
# In the present disclosure, mice were divided into two groups: saline-administered and CNO-administered groups and subjected to the test at the same time every day for 18 days. After a four-day learning period, the fourth day was used as the base. During this period, the mice located the water and 10% sucrose on the hole board. Saline and CNO were administered to each group for a total of 12 days from the 5th day to the 16th day. On the 17th day, it was observed whether the OCD phenomenon was maintained even in the absence of administration of saline and CNO. Finally, on the 18th day, the mice were measured for cognitive flexibility after switching the positions of water and 10% sucrose. The video between the base and the 18th day (base to day 14) was analyzed. The analysis items included checking behavior (repetitive checking), repetitive nose poking (repetitively inserting the nose into the hole), excessive grooming (excessive washing—hair trimming), and flexibility (cognitive flexibility).
# As an analysis method, the video was analyzed with the naked eye through the blind test. Through the blind test, the objectivity of the experiment was secured by preventing the experimenter from knowing about the saline-administered group and the CNO-administered group. A measurement was made of: the frequency of going to water and sucrose for the checking behavior (repetitive checking); the number of actions of inserting the nose into each hole for repetitive nose poking (repeatedly inserting the nose into the hole); the total length of grooming (duration) and the total number of times (frequency) of the start and end of grooming for excessive grooming (excessive washing—hair trimming); and the number of times to go to water and sucrose where the positions of the 18th day (day 14) were reversed, for the flexibility (cognitive flexibility).
# AAV-retro Cre virus, which can make a retrograde infection, was injected to the DMS while AAV-DIO-hM3Dq, which specifically expresses Cre, was injected into the BLA. That is, advantage was taken of the principle that when the retrograde virus from the DMS expresses Cre in the neuron cell body (soma) of the BLA, the AAV-DIO-hM3Dq virus is induced to express hM3Dq thereat only in the presence of Cre. hM3Dq can activate neurons in cooperation with the membrane protein GPCR (G-protein-coupled receptors) upon stimulation with the drug CNO (clozapine n-oxide), whereby the specific activation of the BLA-DMS neural circuit can be achieved. After injecting different viruses into these two areas, it takes more than 4 weeks for the viruses to show their activities.
# After 4 weeks, the learning process was performed for the first 4 days on the hole board without injection of CNO (clozapine n-oxide). During this process, the mice identify and remember the location of the water and 10% sucrose. The BLA-DMS circuit was continuously activated by injecting CNO (1 mg/kg) at the same time every day for 12 days, using the behavioral values of the 4th day as a reference. […]
# BLA-DMS neural circuit [2] = assay: Observation of hairs around the mouth after the tests; conditions: 20 days after the last test day; vs saline-administered mice; FIG. 15
# Text: Additionally, after 20 days from the last day, it was observed that the hairs around the mouth of the Clozapine n-oxide (CNO)-administered mice fell out, compared to the saline-administered mice, indicating a phenotype caused by excessive grooming (see FIG. 15).
# BLA-DMS neural circuit [3] = assay: Hoarding test (two connected cages) in mice with activated BLA-DMS circuit; conditions: day 13 evening to day 14 morning, no administration; vs saline-administered group; FIGS. 12-14
# Text: A tool was manufactured by connecting two cages, with a passage in the middle thereof. The cages each have a dimension of width 25 cm×length 20 cm×height 12 cm (Jeung Do PNP). For the passage, a PVC cylinder with a dimension of diameter 5 cm and length 19 cm was used. A hole with a diameter of 5 cm was drilled 1 cm above the bottom of each cage, and a sill was installed on the PVC so that the length of the passage was 9.5 cm when a PVC cylinder was inserted into the holes. Mice were placed one per cage. In order for the mouse to recognize one cage as a home cage, beddings were placed on only one cage and the other cage was left in the default state, and the passageway to the opposite side of the home cage was blocked for one day. Then the next evening, the food in the home cage was removed, foods and toys were placed on the other cage, and the blocked passage was opened. At this time, water was placed in the home cage. Differences between the groups were compared in how many food pellets and toys were brought to the home cage on the morning of the last day of the experiment. Quantification was made of the brought weight for food and the brought number for toys. […]
# [4] = CNO 1 mg/kg i.p. daily vs saline, repeated 1-way ANOVA, FIG. 8
smiles,measurement,setting,value
"C[N+]1([O-])CCN(C2=Nc3cc(Cl)ccc3Nc3ccccc32)CC1 [CNO, clozapine N-oxide]",checking frequency of heading toward 10% sucrose,"BLA-DMS neural circuit [1]; CNO 1 mg/kg i.p. daily for 12 days vs saline control, repeated 1-way ANOVA, FIG. 6",significantly increased
same,frequency of heading toward water (checking behavior),"BLA-DMS neural circuit [1]; CNO 1 mg/kg i.p. daily for 12 days vs saline-administered group, FIG. 6",no difference
same,repetitive nose poking frequency,"BLA-DMS neural circuit [1]; CNO 1 mg/kg i.p. daily vs saline, repeated 1-way ANOVA, FIG. 7",greatly increased
same,grooming frequency,BLA-DMS neural circuit [1]; [4],significantly increased
same,grooming time (duration),BLA-DMS neural circuit [1]; [4],significantly increased
same,amount of 10% sucrose drank,"BLA-DMS neural circuit [1]; CNO vs saline-administered group, FIG. 9",no difference
same,obsessive-compulsive disorder (checking and nose poking) on day 13 without administration,"BLA-DMS neural circuit [1]; day 13, saline and CNO not administered",maintained
same,cognitive flexibility (times going to water and sucrose after positions swapped),"BLA-DMS neural circuit [1]; day 14 (18th day), vs saline-administered group, Student t-test, FIG. 10",significantly lower
same,hairs around the mouth (phenotype caused by excessive grooming),BLA-DMS neural circuit [2],fell out; also recorded: disappear
same,hoarding of food pellets brought to home cage,BLA-DMS neural circuit [3],significantly increased
same,hoarding of toys brought to home cage,BLA-DMS neural circuit [3],significantly increased

# Reference: US20230000064A1, “OBSESSIVE-COMPULSIVE DISORDER ANIMAL MODEL AND PRODUCTION METHOD THEREOF” (KOREA UNIVERSITY RESEARCH AND BUSINESS FOUNDATION, priority 2019, published 2023)
